Patent publication US20210106649A1, “SYNERGISTIC COMBINATION OF CHEMOTHERAPY AND PEPTIDE FOR TREATING CANCER” (TOBEBIO Novel Drug Laboratory Co., Ltd., priority 2019, published 2021)
Ends that are not written are not given here.

Tested on: AsPC-1 pancreatic cancer cells
Test: Survival analysis of AsPC-1 pancreatic cancer orthotopic mice model
Format: in vivo, athymic nude mice
Details: alloferon-1 2.5 mg/kg daily s.c.; paclitaxel 8 mg/kg weekly i.p.; orthotopic AsPC-1 nude mice
Description: AsPC-1, human pancreas adenocarcinoma cell line, was purchased from American Type Culture Collection (ATCC) and maintained in a complete Eagle's minimal essential medium (MEM) medium supplemented with 10% fetal bovine serum (FBS) (Hyclone), non-essential amino acid, sodium pyruvate, penicillin-streptomycin and vitamin solution (Life Technologies). AsPC-1 cells were incubated at 37° C. in a mixture atmosphere of 5% CO2 and 95% […]. Cell lines were authenticated via short tandem repeat (STR) profiling (Cosmogenetech).
The number of survival days for all animals was recorded and statistical analysis was performed using the GraphPad Prism 8. Kaplan-Meier survival plots were analyzed with the Log-rank (Mantel-Cox) test to compare survival rates between groups. A probability (P) value of <0.05 or lower was considered statistically significant.

| Compound | Median survival |
| --- | --- |
| HGVSGHGQHGVHG [Alloferon-1] | 91 days |
| CC(=O)O[C@H]1C(=O)[C@@]2(C)[C@H]([C@H](OC(=O)c3ccccc3)[C@]3(O)C[C@H](OC(=O)[C@H](O)[C@@H](NC(=O)c4ccccc4)c4ccccc4)C(C)=C1C3(C)C)[C@]1(OC(C)=O)CO[C@@H]1C[C@@H]2O [Paclitaxel, paclitaxel] | 107 days |
